In patent US12084434B2 (Scorpion Therapeutics, Inc., priority 2021, dated 2024):
Read-outs that look alike come from different tables or passages of the source.

Assays:
[1] = target: T1, PI3Kα H1047R protein (p110-α H1047R complexed with truncated p85-α) (Homo sapiens, UniProt P42336, H1047R); experiment: Surface Plasmon Resonance (SPR) binding, wortmannin-blocked protein; settings: Biacore 8K, ATP site blocked with 1 μM wortmannin, 25° C.
T1 construct: The protein contained a full-length p110-α subunit harboring the H1047R mutation
T1 sequence (P42336 whole entry H1047R, the tested form may be a part): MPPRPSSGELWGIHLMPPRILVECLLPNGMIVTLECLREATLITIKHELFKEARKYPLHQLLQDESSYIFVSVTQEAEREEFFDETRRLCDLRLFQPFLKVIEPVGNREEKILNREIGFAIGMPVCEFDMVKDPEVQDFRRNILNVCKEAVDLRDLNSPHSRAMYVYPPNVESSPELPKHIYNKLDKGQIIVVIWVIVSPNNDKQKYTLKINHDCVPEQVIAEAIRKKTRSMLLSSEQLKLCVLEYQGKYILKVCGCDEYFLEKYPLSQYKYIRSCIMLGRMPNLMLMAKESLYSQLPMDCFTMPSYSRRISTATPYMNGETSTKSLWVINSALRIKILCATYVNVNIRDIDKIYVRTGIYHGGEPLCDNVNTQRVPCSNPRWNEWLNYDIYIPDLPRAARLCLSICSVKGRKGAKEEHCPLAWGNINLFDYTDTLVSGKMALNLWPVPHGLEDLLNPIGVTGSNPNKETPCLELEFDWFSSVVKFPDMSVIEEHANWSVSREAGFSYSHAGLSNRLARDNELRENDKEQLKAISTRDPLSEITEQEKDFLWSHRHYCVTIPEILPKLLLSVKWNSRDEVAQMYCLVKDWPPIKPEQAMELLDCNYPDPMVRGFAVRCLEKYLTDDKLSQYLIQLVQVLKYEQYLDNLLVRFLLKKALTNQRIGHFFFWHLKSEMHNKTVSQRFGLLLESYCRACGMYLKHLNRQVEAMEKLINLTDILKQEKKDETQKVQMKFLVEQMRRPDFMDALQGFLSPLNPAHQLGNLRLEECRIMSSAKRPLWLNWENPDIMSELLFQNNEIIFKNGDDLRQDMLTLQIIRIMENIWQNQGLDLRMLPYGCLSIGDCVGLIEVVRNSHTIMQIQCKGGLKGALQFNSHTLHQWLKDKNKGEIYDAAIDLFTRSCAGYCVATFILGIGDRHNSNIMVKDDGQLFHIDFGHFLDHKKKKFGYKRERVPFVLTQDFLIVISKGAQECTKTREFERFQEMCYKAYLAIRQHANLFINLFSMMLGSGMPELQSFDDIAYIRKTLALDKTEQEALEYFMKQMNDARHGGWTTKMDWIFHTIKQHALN
T1 sequence (P27986 322-694 partner limits assumed): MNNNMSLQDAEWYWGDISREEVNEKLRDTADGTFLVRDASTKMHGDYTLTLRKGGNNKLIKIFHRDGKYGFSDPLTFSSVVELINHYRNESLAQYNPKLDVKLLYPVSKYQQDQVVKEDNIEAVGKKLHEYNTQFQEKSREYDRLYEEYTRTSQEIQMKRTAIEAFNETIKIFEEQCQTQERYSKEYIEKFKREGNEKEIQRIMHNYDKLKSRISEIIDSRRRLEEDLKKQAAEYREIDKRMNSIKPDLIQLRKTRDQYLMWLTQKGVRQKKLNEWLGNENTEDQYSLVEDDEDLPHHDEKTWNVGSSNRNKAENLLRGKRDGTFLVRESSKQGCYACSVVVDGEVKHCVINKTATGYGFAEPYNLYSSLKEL
Procedure: Surface Plasmon Resonance (SPR)
SPR experiments were performed on a Biacore 8K instrument. A biotinylated recombinant PI3Kα H1047R protein was used in this study. The protein contained a full-length p110-α subunit harboring the H1047R mutation with an N-terminal AviTag, complexed with a truncated p85-α subunit (amino acid residues 322-694). The protein was first incubated with 1 μM wortmannin for 30 min at RT to covalently block the ATP binding site, then immobilized onto a streptavidin sensor chip by flowing the protein through the sensor chip at typically 20 μg/mL concentration and 2 μL/min flow rate for 1200 seconds. Compound binding affinities were measured in the multi-cycle kinetics mode, at 90 μL/min flow rate with 90 seconds association time and 240 seconds dissociation time. The running buffer contained 50 mM Tris, pH 7.5, 150 mM NaCl, 0.01% Brij35, 1 mM DTT, 1 mM MgCl2, 0.05% Tween-20 and 2% DMSO. Temperature was maintained at 25° C. during experiments.

[2] = tested on: T47D pAKT (S473), PI3Kα H1047R mutation present; experiment: HTRF pAKT-T47D;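 note: assay medium was RPMI with 10% FBS and 0.2 units/ml bovine insulin, without phenol red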
Procedure: Homogenous Time-Resolved Fluorescence (HTRF)—pAKT-T47D
Compounds were assayed using homogeneous time-resolved fluorescence (HTRF).
Gibco RPMI 1640 Medium, no phenol red; Gibco RPMI 1640 Medium; Gibco Trypsin-EDTA (0.5%), no phenol red; Gibco DPBS; Trypan blue solution 0.4% (Corning); Avantor Seradigm Premium Grade Fetal Bovine Serum (FBS); Greiner 784080-384 well TC treated white plates; pAKT (Ser473) HTRF; Gibco Insulin, human recombinant, zinc solution; Gibco Recovery Cell Culture Freezing Medium; Countess II FL Automated Cell Counter (ThermoFisher); Countess II Slides (ThermoFisher); Microscope; and PHERAstar FSX Microplate Reader (BMG LABTECH, Inc.).
The scinamic cell line ID was T47D.1, the HTRF detection was pAKT (S473), a PI3Kα H1047R mutation was present, the seeding density was 5000, the timepoint was 1 hour, and the medium used was RPMI+10% FBS (no phenol red)+0.2 units/ml bovine insulin.
• The cell density was not permitted to reach 100% confluence. The cells were split 1:5 when they reached ˜80% confluence. • Cells were split twice a week (Mon and Fri). • Cells over passage 18 were not used (˜2 months of maintenance). • Antibiotics were not used for tissue culture maintenance or assays. […] Protocol Day1
The procedure was as follows: • 1. Prepared ARP: • a. Stamped 12.5 nL from 10 μmM source plate to destination plate using Echo. Sealed plate immediately and froze at −20° C. if it was not used on the same day. • b. If a frozen ARP was used, the plate was thawed and spun at 1000 rpm×1 min. • 2. Preparation of cells (adherent): • a. Aspirated media from cells. Washed cells with sterile 1XPBS. Aspirated PBS and added appropriate amount of Trypsin. • b. Once cells were fully trypsinized, added appropriate media to resuspend cells. Transferred cells to a 15 mL or 50 mL conical tube. • c. Counted cells on the Countess II Cell Counter. • 3. Plating of cells: • a. Prepared cells at appropriate plating density. Dispensed 12 μL of diluted cells per well of a Greiner 784080-384 well TC treated white plate using a Multidrop Combi to columns 1-23. Added 12 uL of appropriate phenol free media only to column 24. • b. Placed plates in 37° C. tissue culture incubator for appropriate treatment time (refer to “Assay” table). • 4. Prepared HTRF Lysis Buffer • a. Calculate the amount of HTRF lysis buffer master mix needed to perform the desired experiments plus any extra dead volume required for dispensing (4 μL required per well). […] Add 4 uL Lysis buffer master mix to all wells with sample or DMSO. Centrifuge the plates for 1 minute at 1000 rpm. • c. Incubate at room temperature for 30 minutes. • 5. Prepared HTRF Antibody • a.

[3] = Homo sapiens, T47D, 1 h, read-out: T47D pAKT IC50 (nM), T47D.1 cells, pAKT (S473) HTRF, 1 hour

| Compound | Kd [1] [nM] | IC50 [2, 3] [nM] | IC50 ([2]; read-out: T47D pAKT IC50, T47D.1 cells, pAKT (S473) HTRF, 1 hour) [nM] |
| --- | --- | --- | --- |
| Cc1c([C@@H](NC(=O)Nc2ccc(C(=O)N(C)C)nc2)C(C)C)oc2ccc(F)cc12 [Compound 65, (S)-5-(3-(1-(5-fluoro-3-methylbenzofuran-2-yl)-2-methylpropyl)ureido)-N,N-dimethylpicolinamide] | 100 to 250 | 1000 to 5000 | – |
| Cc1c([C@@H](NC(=O)Nc2cnc(N)nc2)C(C)C)oc2ccc(F)cc12 [Compound 66, (S)-1-(2-aminopyrimidin-5-yl)-3-(1-(5-fluoro-3-methylbenzofuran-2-yl)-2-methylpropyl)urea] | < 100 | – | 1000 to 5000 |
| Cc1c([C@@H](NC(=O)Nc2ccc(N3CCC3)nc2)C(C)C)oc2ccc(F)cc12 [Compound 71, (S)-1-(6-(azetidin-1-yl)pyridin-3-yl)-3-(1-(5-fluoro-3-methylbenzofuran-2-yl)-2-methylpropyl) urea] | < 100 | < 1000 | – |
| Cc1c([C@@H](NC(=O)Nc2cnc(N3CC(F)(F)C3)nc2)C(C)C)oc2ccc(F)cc12 [Compound 72, (S)-1-(2-(3,3-difluoroazetidin-1-yl)pyrimidin-5-yl)-3-(1-(5-fluoro-3-methylbenzofuran-2-yl)-2-methylpropyl)urea] | < 100 | < 1000 | – |

The remaining lines, values ahead:

| Kd [1] [nM] | IC50 [2, 3] [nM] | IC50 ([2]; read-out: T47D pAKT IC50, T47D.1 cells, pAKT (S473) HTRF, 1 hour) [nM] | Compound |
| --- | --- | --- | --- |
| < 100 | < 1000 | – | Cc1c([C@@H](NC(=O)Nc2cnc(N3CC(F)C3)nc2)C(C)C)oc2ccc(F)cc12 [Compound 73, (S)-1-(1-(5-fluoro-3-methylbenzofuran-2-yl)-2-methylpropyl)-3-(2-(3-fluoroazetidin-1-yl)pyrimidin-5-yl)urea] |
| < 100 | < 1000 | – | Cc1c([C@@H](NC(=O)Nc2cnc(N3CCC3)nc2)C(C)C)oc2ccc(F)cc12 [Compound 74] |
| < 100 | < 1000 | – | Cc1c([C@@H](NC(=O)Nc2cnc(N)nc2)C(C)C)oc2c(F)cc(F)cc12 [Compound 75, (S)-1-(2-aminopyrimidin-5-yl)-3-(1-(5,7-difluoro-3-methylbenzofuran-2-yl)-2-methylpropyl)urea] |
